Columns and labels:
[1] = test system: Helicobacter pylori strains 9470, 9472 and 9474; experiment: Antibacterial action against Helicobacter pylori (MIC, agar dilution); type: cell-based; settings: 72 h, 37° C., 3 days, microaerophilic conditions, read-out: MIC (Minimum Inhibitory Concentration)
Experimental: Antibacterial Action Against Helicobacter Pylori The antibacterial activity of the compound of the invention was evaluated by using Helicobacter pylori strains 9470, 9472 and 9474 and determining MIC (Minimum Inhibitory Concentration) of the compound of the invention against Helicobacter pylori. Helicobacter pylori was cultured by plating for 4 days. A medium was prepared by dissolving Brain Heart Infusion Agar (product of Difco Laboratories) in a prescribed amount of distilled water, sterilizing in an autoclave, adding equine blood (product of Nippon Seibutsu Zairyo) to give a concentration thereof of 7% and then solidifying the mixture. Under microaerophilic conditions, Helicobacter pylori which had been cultured at 37° C. for 4 days was suspended in physiological saline to give its viable count of about 10^8 CFU/ml. The suspension was then diluted to 100 times and a portion (about 10 μl) of the diluted suspension was inoculated in a medium for measuring MIC. The medium employed for measuring MIC has the same composition as the preculture medium. A compound of this invention was dissolved in dimethyl sulfoxide (DMSO) and two-fold serial dilutions were made with sterilized water. After mixing the solution and the medium in a ratio of 1:99, a solidified product in the Petri dish was employed as an MIC measuring medium. […]

gastric acid secretion = experiment: Test for inhibition on gastric acid secretion in rats (pylorus ligation); type: in vivo; settings: pylorus-ligated rats, orally administered, four hours after ligation
Experimental: Test for Inhibition on Gastric Acid Secretion in Rats
After a group of rats was fasted overnight, they were subjected to midline abdominal incision and their pylorus was ligated under anesthesia with ether. The stomach and duodenum were returned to their original positions in the body, followed by closing at the abdominal incision part. A test compound (0.3 to 10 mg/ml) was suspended in an aqueous solution containing 0.5% of sodium carboxymethylcellulose and 0.4% of Tween 80 (trade mark). The resulting suspension (1 ml/kg of body weight) was orally administered to the rats through a stomach tube. Four hours after the ligation, the rats were sacrificed by inhalation of CO2 gas. They were subjected to abdominal incision to remove their stomach. The content of the stomach was collected in a glass-made graduated centrifuge tube. After centrifugation, the amount (ml) of the supernatant and the amount (ml) of the precipitate were measured. The precipitate of the amount exceeding 0.5 ml was regarded as feces and excluded from the data. The supernatant ([…]) was poured into a test tube. Distilled water (4 ml) was added to the solution, and the solution was titrated to pH 7.0 with 0.01 N sodium hydroxide. […] Each parameter was calculated in accordance with the following equations: […]

[2] = molecular target: T1, proton potassium-adenosine triphosphatase (H+.K+-ATPase) (Sus scrofa, UniProt P19156); experiment: Test on activity of proton potassium-adenosine triphosphatase (H+.K+-ATPase); type: biochemical; settings: swine gastric mucosal microsomal fraction, pH 6.85, 37° C.; read-out: 50% inhibitory concentration (IC50) against proton potassium-adenosine triphosphatase (converted)
T1 construct: A microsomal fraction prepared in accordance with the method of Sachs, et al; from tissue; host or cells: swine gastric mucosa, microsomal fraction (density gradient ultracentrifugation)
T1 sequence (P19156 2-1034 limits assumed): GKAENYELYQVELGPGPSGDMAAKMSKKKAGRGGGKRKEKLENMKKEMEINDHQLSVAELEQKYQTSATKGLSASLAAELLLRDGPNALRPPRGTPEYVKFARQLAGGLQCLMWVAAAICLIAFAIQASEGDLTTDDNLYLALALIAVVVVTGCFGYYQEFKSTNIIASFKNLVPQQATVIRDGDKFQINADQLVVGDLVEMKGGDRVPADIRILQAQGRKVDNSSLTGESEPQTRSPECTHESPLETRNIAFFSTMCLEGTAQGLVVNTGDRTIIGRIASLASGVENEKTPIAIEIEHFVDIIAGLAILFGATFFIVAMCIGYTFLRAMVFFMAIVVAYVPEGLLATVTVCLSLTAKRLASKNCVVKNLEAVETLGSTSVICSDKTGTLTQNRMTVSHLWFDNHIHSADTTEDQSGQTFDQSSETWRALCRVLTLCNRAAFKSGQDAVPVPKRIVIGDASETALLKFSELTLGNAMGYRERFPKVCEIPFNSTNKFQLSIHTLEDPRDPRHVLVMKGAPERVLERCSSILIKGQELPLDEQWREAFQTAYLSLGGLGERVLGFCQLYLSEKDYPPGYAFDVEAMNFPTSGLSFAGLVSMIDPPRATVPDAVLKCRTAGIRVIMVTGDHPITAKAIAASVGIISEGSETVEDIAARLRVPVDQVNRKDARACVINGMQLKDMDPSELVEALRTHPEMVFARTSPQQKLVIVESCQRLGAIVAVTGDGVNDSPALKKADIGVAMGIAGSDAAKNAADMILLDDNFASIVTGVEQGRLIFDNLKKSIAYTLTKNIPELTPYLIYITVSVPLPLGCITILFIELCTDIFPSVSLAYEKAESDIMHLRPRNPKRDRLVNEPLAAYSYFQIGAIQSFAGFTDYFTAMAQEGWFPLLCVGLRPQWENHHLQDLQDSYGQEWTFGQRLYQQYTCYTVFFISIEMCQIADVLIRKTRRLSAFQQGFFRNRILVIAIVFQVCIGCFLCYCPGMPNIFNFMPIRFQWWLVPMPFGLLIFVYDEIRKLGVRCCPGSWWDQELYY
T1 sequence (P18434 whole entry partner): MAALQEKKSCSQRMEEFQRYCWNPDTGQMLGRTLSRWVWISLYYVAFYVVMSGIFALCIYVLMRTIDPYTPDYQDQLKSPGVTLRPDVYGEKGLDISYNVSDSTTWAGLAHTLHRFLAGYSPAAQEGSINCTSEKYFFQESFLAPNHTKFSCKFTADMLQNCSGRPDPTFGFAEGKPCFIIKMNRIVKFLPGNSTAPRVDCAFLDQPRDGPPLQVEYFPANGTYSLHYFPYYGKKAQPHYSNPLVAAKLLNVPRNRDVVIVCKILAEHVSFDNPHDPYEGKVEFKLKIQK
Experimental: Test on Activity of Proton•potassium-adenosine Triphosphatase (H^+.K^+-ATPase) A microsomal fraction prepared in accordance with the method of Sachs, et al. [J. Bio. Chem., 251, 7690(1976)] by homogenizing a fresh gastric mucosal layer of swine and then subjecting the homogenate to density gradient ultra centrifugation was employed as a proton potassium-adenosine triphosphatase preparation. A solution (10 μl) of a test compound dissolved in dimethyl sulfoxide was added to 0.75 ml of a 70 mM tris hydrochloric acid buffer (5 mM magnesium chloride, 20 mM potassium chloride, pH=6.85) containing 30 to 80 μg/ml, in terms of the protein concentration, of the enzyme preparation. The mixture was incubated with 200 times/min of agitation at 37° C. for 45 minutes. The enzymatic reaction was started by adding 0.25 ml of an 8 mM solution of disodium adenosine triphosphate. After this enzymatic reaction was continued for 20 minutes, 1 ml of a 10% trichloroacetic acid—activated charcoal (100 mg) solution was added to terminate the reaction. […] The amount of inorganic phosphoric acid in a reaction mixture free from potassium chloride was also measured. By subtracting this amount from the amount of inorganic phosphoric acid in the presence of potassium chloride, protonpotassium-adenosine triphosphatase activity (H^+.K^+-ATPase) was determined. […]

melting point | MIC [1] | IC50 [2] | SMILES | 50% inhibitory dose (ID50), gastric acid output (gastric acid secretion)
138.5 to 139.5 °C |  |  | Cc1c(C=O)c2cnnc(OCc3ccc(F)cc3)c2n1C[C@H]1C[C@@H]1C | 
128 to 129 °C | < 12.5 mg/L | 0.0422 µM | Cc1c(CO)c2cnnc(OCc3ccc(F)cc3)c2n1C[C@H]1C[C@@H]1C [Example 2, 7-(4-Fluorobenzyloxy)-3-hydroxymethyl-2-methyl-1-[(1S,2S)-2-methylcyclopropylmethyl]pyrrolo[2,3-d]-pyridazine] | less than 10 mg/kg

SMILES | melting point | MIC [1] | IC50 [2] | 50% inhibitory dose (ID50), gastric acid output (gastric acid secretion)
CC(=O)OCc1c(C)n(C[C@H]2C[C@@H]2C)c2c(OCc3ccc(F)cc3)nncc12 [Example 1, 3-Acetoxymethyl-7-(4-fluorobenzyloxy)-2-methyl-1-[(1S,2S)-2-methylcyclopropylmethyl]pyrrolo[2,3-d]-pyridazine] | 122 to 123 °C |  |  | 

From US6734181B2, “Pyrrolopyridazine compounds” (Sankyo Company, Limited, priority 2000, dated 2004)
